Source: the supplement of paper PMC10307832

Legend:
Assay in all cases: relative viability (nuclei count vs DMSO), 5 days (fraction); higher = more cells survive
PAC-1 + Foretinib = compound: C=CCc1cccc(/C=N/NC(=O)CN2CCN(Cc3ccccc3)CC2)c1O [PAC-1] + COc1cc2c(Oc3ccc(NC(=O)C4(C(=O)Nc5ccc(F)cc5)CC4)cc3F)ccnc2cc1OCCCN1CCOCC1 [Foretinib] (partner 0.25 µM)
How it was run: (§1)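 Values are medians from duplicate plates. Each reflects relative viability, defined as the nuclei count of treated wells over that of vehicle wells. Lung cancer cell lines in 1536-well plates were pin-tool dosed one day after seeding with one drug alone or with a fixed anchor-drug dose plus five library-drug doses (not always all listed) in √10 steps, then fixed, stained and imaged at 4× after 5 days.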

PAC-1 + OSI-027 = compound: C=CCc1cccc(/C=N/NC(=O)CN2CCN(Cc3ccccc3)CC2)c1O [PAC-1] + COc1cccc2cc(-c3nc([C@H]4CC[C@H](C(=O)O)CC4)n4ncnc(N)c34)[nH]c12 [OSI-027] (partner 0.5 µM)
How it was run: as §1

PAC-1 + Alpelisib = compound: C=CCc1cccc(/C=N/NC(=O)CN2CCN(Cc3ccccc3)CC2)c1O [PAC-1] + Cc1nc(NC(=O)N2CCC[C@H]2C(N)=O)sc1-c1ccnc(C(C)(C)C(F)(F)F)c1 [Alpelisib] (partner 2 µM)
How it was run: as §1

PAC-1 + AZD7762 = compound: C=CCc1cccc(/C=N/NC(=O)CN2CCN(Cc3ccccc3)CC2)c1O [PAC-1] + NC(=O)Nc1cc(-c2cccc(F)c2)sc1C(=O)N[C@H]1CCCNC1 [AZD7762] (partner 0.2 µM)
How it was run: as §1

PAC-1 + Pemetrexed = compound: C=CCc1cccc(/C=N/NC(=O)CN2CCN(Cc3ccccc3)CC2)c1O [PAC-1] + Nc1nc2[nH]cc(CCc3ccc(C(=O)N[C@@H](CCC(=O)O)C(=O)O)cc3)c2c(=O)[nH]1 [Pemetrexed] (partner 0.2 µM)
How it was run: as §1

Cell Line | relative viability (PAC-1 + Foretinib; first compound 0.02 µM) | relative viability (PAC-1 + Foretinib; first compound 0.06325 µM) | relative viability (PAC-1 + Foretinib; first compound 0.2 µM) | relative viability (PAC-1 + Foretinib; first compound 2 µM) | relative viability (PAC-1 + OSI-027; first compound 0.02 µM) | relative viability (PAC-1 + OSI-027; first compound 0.06325 µM) | relative viability (PAC-1 + OSI-027; first compound 0.2 µM) | relative viability (PAC-1 + OSI-027; first compound 2 µM) | relative viability (PAC-1 + Alpelisib; first compound 0.02 µM) | relative viability (PAC-1 + Alpelisib; first compound 0.06325 µM) | relative viability (PAC-1 + Alpelisib; first compound 0.2 µM) | relative viability (PAC-1 + Alpelisib; first compound 2 µM) | relative viability (PAC-1 + AZD7762; first compound 0.02 µM) | relative viability (PAC-1 + AZD7762; first compound 0.06325 µM) | relative viability (PAC-1 + AZD7762; first compound 0.2 µM) | relative viability (PAC-1 + AZD7762; first compound 2 µM) | relative viability (PAC-1 + Pemetrexed; first compound 0.02 µM) | relative viability (PAC-1 + Pemetrexed; first compound 0.06325 µM) | relative viability (PAC-1 + Pemetrexed; first compound 0.2 µM) | relative viability (PAC-1 + Pemetrexed; first compound 2 µM)
HCC-827 | 1.11 | 1.03 | 0.964 | 1.03 | 0.763 | 0.692 | 0.703 | 0.792 | 0.964 | 0.927 | 0.895 | 1 | 0.239 | 0.191 | 0.235 | 0.237 | 0.275 | 0.259 | 0.256 | 0.256
HOP-62 | 1.1 | 1.13 | 1.1 | 1.17 | 0.836 | 0.814 | 0.782 | 0.892 | 1.07 | 0.875 | 0.798 | 0.85 | 0.822 | 0.623 | 0.577 | 0.515 | 0.356 | 0.267 | 0.312 | 0.34
LC-2-ad | 0.968 | 0.875 | 0.887 | 0.954 | 0.877 | 1.05 | 0.78 | 0.64 | 0.942 | 0.845 | 0.791 | 0.887 | 0.76 | 0.868 | 0.859 | 0.902 | 0.26 | 0.296 | 0.265 | 0.27
LCLC-97TM1 | 0.989 | 1 | 0.945 | 0.955 | 0.436 | 0.536 | 0.453 | 0.449 | – | 0.215 | 0.281 | 0.192 | 0.211 | 0.267 | 0.23 | 0.345 | 0.184 | 0.177 | – | 0.191
LCLC-103H | 0.734 | 0.785 | 0.713 | 0.689 | 0.45 | 0.467 | 0.436 | 0.559 | 0.861 | 0.864 | 1.05 | 0.928 | 0.833 | 0.764 | 0.713 | 0.757 | 0.468 | 0.419 | 0.436 | 0.451
LK-2 | 1.11 | 1.16 | 0.858 | 1.12 | 0.186 | 0.195 | 0.208 | 0.206 | 1.08 | 1.22 | 1.2 | 0.971 | 0.488 | 0.315 | 0.327 | 0.416 | 0.238 | 0.244 | 0.246 | 0.321
LOU-NH91 | 0.919 | 0.931 | 0.982 | 0.898 | 0.643 | 0.68 | 0.727 | 0.715 | 0.706 | 0.739 | 0.692 | 0.738 | 0.742 | 0.761 | 0.768 | 0.71 | 0.368 | 0.365 | 0.379 | 0.39
LU99A | 0.91 | 0.854 | 0.818 | 0.774 | 0.303 | 0.314 | 0.257 | 0.3 | 0.528 | 0.508 | 0.495 | 0.472 | 0.465 | 0.392 | 0.264 | 0.179 | 0.192 | 0.162 | 0.182 | 0.177
